{"source": "patent US12545652B2", "about": "“Crystalline forms of a TYK2 inhibitor” (Sareum Limited, priority 2020, dated 2026)", "key": {"[1]": {"assay": "Compression stability test (10×10^4N force)", "type": "physicochemical", "procedure": "Compression stability tests were carried out on samples from two batches of crystalline Form A and samples from two batches of Crystalline Form B. One pair of samples of Form A and Form B was subjected to compression under 10×10^4N force for 23 and 23¾ hours respectively to assess the impact upon form fate and chemical stability.\nThe other pair of samples of Form A and Form B was subjected to similar compression pressures over an extended duration of 7 days to assess the impact of prolonged compression force upon form fate and chemical stability."}, "[2]": {"assay": "Dynamic vapour sorption (DVS)", "type": "physicochemical", "procedure": "Sorption isotherms were obtained using a Hiden Isochema moisture sorption analyser (model IGAsorp), controlled by IGAsorp Systems Software V6.50.48. The sample was maintained at a constant temperature (25° C.) by the instrument controls. The humidity was controlled by mixing streams of dry and wet nitrogen, with a total flow of 250 ml·min^−1. The instrument was verified for relative humidity content by measuring three calibrated Rotronic salt solutions (10-50-88%). The weight change of the sample was monitored as a function of humidity by a microbalance (accuracy +/−0.005 mg). A defined amount of sample was placed in a tared mesh stainless steel basket under ambient conditions. A full experimental cycle typically consisted of three scans (sorption, desorption and sorption) at a constant temperature (25° C.) and 10% RH intervals over a 0-90% range (60 minutes for each humidity level)."}, "[3]": {"assay": "Hepatocyte stability assay, dog", "type": "in vitro ADME", "conditions": "male, Beagle, pooled hepatocytes", "procedure": "(§1) Test and control compounds were incubated with hepatocytes at 37° C. Aliquots were removed at 6 timepoints over a one hour period. Samples were centrifuged and the supernatant fractions analysed for parent compound by mass spectrometry (LC-MS/MS).\n(§2) The amount of compound remaining (expressed as %) was determined from the MS response in each sample relative to that in the T=0 samples, and used to determine the half-life and intrinsic clearance of the compound."}, "JAK2": {"test_system": "JAK2", "assay": "JAK2 kinase inhibition assay (33P-ATP filter binding, Reaction Biology)", "type": "biochemical", "procedure": "(§3) The compound of the formula (1) was assayed for its ability to inhibit TYK2 kinase and other JAK kinases.\n(§4) Substrates and kinases used in the assays are identified in Table 12 below.\n(§5) Kinase assays were performed at Reaction Biology Corp., Malvern, Pennsylvania, USA, using the general procedure set out below. In the assays, the ATP concentration was 100 μM and the top compound concentrations were 10 μM.\n(§6) Note that the TYK2 and JAK kinase data in Table 7 on page 61 of WO 2015/032423 were generated using an assay in which the ATP concentration was 10 μM whereas, as indicated above, the assay described in the protocol below used an ATP concentration of 100 μM. […]"}, "TYK2 kinase": {"target": "TYK2 kinase (Homo sapiens (Human), UniProt P29597)", "sequence (P29597 833-1187)": "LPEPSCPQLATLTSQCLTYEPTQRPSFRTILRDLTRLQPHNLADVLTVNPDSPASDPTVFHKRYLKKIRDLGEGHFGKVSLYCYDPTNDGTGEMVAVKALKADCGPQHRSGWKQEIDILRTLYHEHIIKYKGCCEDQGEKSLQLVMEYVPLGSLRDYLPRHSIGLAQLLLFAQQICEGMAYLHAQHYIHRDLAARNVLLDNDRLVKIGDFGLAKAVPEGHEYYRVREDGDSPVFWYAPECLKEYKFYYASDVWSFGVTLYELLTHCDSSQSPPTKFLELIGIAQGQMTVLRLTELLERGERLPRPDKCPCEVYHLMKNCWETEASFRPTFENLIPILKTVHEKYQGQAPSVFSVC", "assay": "TYK2 kinase inhibition assay (33P-ATP filter binding, Reaction Biology)", "type": "biochemical", "conditions": "ratio of IC50 to TYK2 IC50", "procedure": "as §3, §4, §5, §6"}, "JAK1": {"target": "JAK1 (Homo sapiens (Human), UniProt P23458)", "sequence (P23458 866-1154)": "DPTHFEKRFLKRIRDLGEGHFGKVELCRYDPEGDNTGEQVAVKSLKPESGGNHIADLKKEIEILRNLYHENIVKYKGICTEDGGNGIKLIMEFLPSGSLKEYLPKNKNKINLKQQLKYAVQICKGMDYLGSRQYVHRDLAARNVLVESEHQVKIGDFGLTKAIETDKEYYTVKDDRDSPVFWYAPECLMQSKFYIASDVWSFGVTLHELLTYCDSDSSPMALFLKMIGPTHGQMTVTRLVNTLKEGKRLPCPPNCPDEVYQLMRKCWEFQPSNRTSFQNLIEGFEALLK", "assay": "JAK1 kinase inhibition assay (33P-ATP filter binding, Reaction Biology)", "type": "biochemical", "conditions": "ratio of IC50 to TYK2 IC50", "procedure": "as §3, §4, §5, §6"}, "[4]": {"assay": "Hepatocyte stability assay, mouse", "type": "in vitro ADME", "conditions": "male, CD-1, pooled hepatocytes", "procedure": "as §1, §2"}, "[5]": {"assay": "Hepatocyte stability assay, rat", "type": "in vitro ADME", "conditions": "male, Sprague-Dawley, pooled hepatocytes", "procedure": "as §1, §2"}, "JAK3": {"target": "JAK3 (Homo sapiens (Human), UniProt P52333)", "sequence (P52333 781-1124)": "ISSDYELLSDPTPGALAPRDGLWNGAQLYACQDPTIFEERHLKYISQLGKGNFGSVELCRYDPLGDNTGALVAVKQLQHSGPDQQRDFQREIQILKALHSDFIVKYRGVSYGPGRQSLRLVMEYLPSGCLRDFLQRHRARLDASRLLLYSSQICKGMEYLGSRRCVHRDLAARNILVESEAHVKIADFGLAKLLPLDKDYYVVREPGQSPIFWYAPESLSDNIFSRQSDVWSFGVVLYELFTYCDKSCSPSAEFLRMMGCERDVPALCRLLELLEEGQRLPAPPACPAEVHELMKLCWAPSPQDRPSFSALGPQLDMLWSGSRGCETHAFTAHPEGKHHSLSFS", "assay": "JAK3 kinase inhibition assay (33P-ATP filter binding, Reaction Biology)", "type": "biochemical", "procedure": "as §3, §4, §5, §6"}, "[6]": {"assay": "Hepatocyte stability assay, human", "type": "in vitro ADME", "conditions": "both sexes, pooled hepatocytes; for half-life: human", "procedure": "as §1, §2"}, "[7]": {"test_system": "pSTAT3 in IL-22 stimulated HT29 cells", "assay": "pSTAT3 inhibition in response to IL-22 stimulation in serum starved HT29 cells", "type": "cell-based", "conditions": "Homo sapiens, HT-29", "procedure": "HT29 cells were serum starved overnight before the four test compounds were diluted to generate a 9-point semi-log dose dilution with a top concentration of 10 μM, plus vehicle control. HT29 cells were incubated with the test compounds for 20 minutes at 37° C. HT29 cells were incubated for a further 15 minutes with 10 ng/ml human IL-22 before cells were fixed with 4% PFA for 10 minutes, and 90% methanol for 30 minutes before being labelled with a phospho-STAT3Y705 antibody (CST #9145). Cells were rinsed three times using 0.5% BSA/PBS solution before being incubated with Alexa-488 anti-rabbit secondary antibodies.\nMean fluorescence intensity of phospho-STAT3 in single cells was analysed by flow cytometry using an Intellicyt iQue instrument and FlowJo software. The IC50 was determined using a four-parameter analysis following removal of background signal and normalisation to the DMSO control."}, "[8]": {"assay": "Solubility at 25° C. by HPLC of filtrates after equilibration of Form A in solvents", "type": "physicochemical", "conditions": "for solubility: 25 °C, organic solvent or mixture, thermodynamic from solid"}, "[9]": {"conditions": "Human hepatocytes, read-out: T1/2"}, "[10]": {"conditions": "IL-22 stimulated serum starved HT29 cells, read-out: pSTAT3 inhibition IC50"}}, "note": "“Also recorded” adds a separate entry of the source. Where two headings read alike, the source gives them in different places.", "data": [{"smiles": "NC(=O)c1nc(-c2c(Cl)cccc2Cl)oc1Nc1ccc(C(=O)N2CCS(=O)(=O)CC2)cc1", "note": "[Form B, 2-(2,6-dichlorophenyl)-5-[4-(1,1-dioxo-1,4-thiazinane-4-carbonyl)anilino]oxazole-4-carboxamide]", "values": [{"measurement": "HPLC assessment post-compression (chemical stability)", "setting": "[1]; compression for 7 days", "value": "no change to the impurity profile; also recorded: no discernible chemical degradation"}, {"measurement": "XRPD examination of solids isolated post-compression (form fate)", "setting": "[1]; compression for both ca. 1 and 7 days", "value": "diffraction pattern matching the input Pattern B but of reduced diffraction resolution"}, {"measurement": "HPLC assessment post-compression (chemical stability)", "setting": "[1]; compression for ca. 1 day (23 / 23¾ hours), 10×10^4N", "value": "no change to the impurity profile; also recorded: no discernible chemical degradation"}, {"measurement": "XRPD examination of the solid isolated post-DVS", "setting": "[2]; at 0 and 90% RH", "value": "no clear evidence of form modification"}, {"measurement": "DVS total weight gain upon sorption", "setting": "[2]; from 0 to 90% RH, 25° C.", "value": "ca. 0.57 wt %"}, {"measurement": "DVS weight reduction upon the first desorption", "setting": "[2]; from 50 to 0% RH, 25° C.", "value": "ca. 0.38 wt %"}, {"measurement": "DVS hysteresis", "setting": "[2]; repeat desorption and sorption, most evident between 10 and 60% RH", "value": "ca. 0.11 wt %"}]}, {"smiles": "NC(=O)c1nc(-c2c(Cl)cccc2Cl)oc1Nc1ccc(C(=O)N2CCS(=O)(=O)CC2)cc1", "note": "[Compound (1), 2-(2,6-dichlorophenyl)-5-[4-(1,1-dioxo-1,4-thiazinane-4-carbonyl)anilino]oxazole-4-carboxamide]", "values": [{"measurement": "half-life", "setting": "[3]", "value": "> 460", "unit": "min"}, {"measurement": "hepatocyte CLint", "setting": "[3]", "value": "< 3", "unit": "µL/min/1e6 cells"}, {"measurement": "selectivity for TYK2 compared to JAK2", "setting": "JAK2; biochemical assays", "value": "approximately 25 fold"}, {"measurement": "Selectivity v TYK2: JAK2", "setting": "JAK2; ratio of IC50 to TYK2 IC50", "value": 26.3}, {"measurement": "Selectivity v TYK2: TYK2", "setting": "TYK2 kinase", "value": 1}, {"measurement": "Selectivity v TYK2: JAK1", "setting": "JAK1", "value": 10.5}, {"measurement": "half-life", "setting": "[4]", "value": 65.3, "unit": "min"}, {"measurement": "half-life", "setting": "[5]", "value": 30.6, "unit": "min"}, {"measurement": "selectivity for TYK2 compared to JAK3", "setting": "JAK3; biochemical assays", "value": "~110", "unit": "fold"}, {"measurement": "Selectivity v TYK2: JAK3", "setting": "JAK3; ratio of IC50 to TYK2 IC50", "value": 111.6}, {"measurement": "half-life", "setting": "[6]; [9]", "value": "> 460", "unit": "min"}, {"measurement": "hepatocyte CLint", "setting": "[6]; Human hepatocytes", "value": "< 3", "unit": "µL/min/1e6 cells"}, {"measurement": "IC50", "setting": "[7]; IL-22 stimulated HT29 cells, read-out: IC50 against pSTAT3 inhibition", "value": "< 100", "unit": "nM"}, {"measurement": "IC50", "setting": "[7]; [10]", "value": 16, "unit": "nM"}, {"measurement": "Solubility at 25° C.", "setting": "[8]; 2-Chlorobutane", "value": "< 1", "unit": "mg/mL"}, {"measurement": "Solubility at 25° C.", "setting": "[8]; 4:1 THF/water", "value": "> 10", "unit": "mg/mL"}, {"measurement": "Solubility at 25° C.", "setting": "[8]; Cyclohexane", "value": "< 1", "unit": "mg/mL"}, {"measurement": "Solubility at 25° C.", "setting": "[8]; DCM", "value": "> 10", "unit": "mg/mL"}, {"measurement": "Solubility at 25° C.", "setting": "[8]; Nitromethane", "value": "> 10", "unit": "mg/mL"}, {"measurement": "solubility", "setting": "[8]; TBME", "value": "< 1000", "unit": "µg/mL"}, {"measurement": "Solubility at 25° C.", "setting": "[8]; THF", "value": "> 10", "unit": "mg/mL"}, {"measurement": "Solubility at 25° C.", "setting": "[8]; Water", "value": "< 1", "unit": "mg/mL"}, {"measurement": "solubility", "setting": "[8]; anisole", "value": "> 10000", "unit": "µg/mL"}, {"measurement": "solubility", "setting": "[8]; heptane, no peak detected in the chromatogram for the filtrate (×100 dilution)", "value": "< 1000", "unit": "µg/mL"}]}, {"smiles": "NC(=O)c1nc(-c2c(Cl)cccc2Cl)oc1Nc1ccc(C(=O)N2CCOCC2)cc1", "note": "[Comparative Compound B, 2-(2,6-dichloro-phenyl)-5-[4-(morpholine-4-carbonyl)-phenylamino]-oxazole-4-carboxylic acid amide, reference compound]", "values": [{"measurement": "half-life", "setting": "[3]", "value": 53.5, "unit": "min"}, {"measurement": "half-life", "setting": "[4]", "value": 27, "unit": "min"}, {"measurement": "half-life", "setting": "[5]", "value": 14.8, "unit": "min"}, {"measurement": "half-life", "setting": "[6]; [9]", "value": 124, "unit": "min"}, {"measurement": "half-life", "setting": "[6]; human hepatocytes, read-out: half-life in humans", "value": "> 120", "unit": "min"}, {"measurement": "IC50", "setting": "[7]; [10]", "value": 53, "unit": "nM"}]}]}
